For one data set, the system named is S91 (mouse melanoma). The data set can be described thus: Cell photosensitization, filtered halogen lamp, MTT. The following applies: [Luzitin-Cl-c] = 20 μM. The data set is classed as cell-based. On the procedure: (§1) Irradiation in in vitro experiments was performed using either a halogen lamp or a laser source. In the first case, a 500 W halogen lamp was placed 50 cm from the irradiated plate to insure a homogeneous irradiation. A cooled water filter (d=35 mm) and a 600 nm cut off filter were placed between the lamp and samples. The fluence rate reaching samples was 3 mW/cm^2. The emission spectrum of the halogen lamp was recorded using a spectroradiometer IL2000 (Spectrocube), FIG. 1. In the second case, three Lynx external cavity diode lasers TEC 500 powered by PilotPC 500 Laser Controllers (Sacher Lasertechnik, Marburg, Germany) were employed. The laser energies were stable at 40 mW for the 748 nm laser, 10 mW for the 649 laser and 10 mW for the 633 laser. The laser energies were regularly measured with a Coherent LaserCheck. In some in vitro experiments, the laser light was focused on an optical fiber through a collimator in microbench, and delivered to the cells. This system reduced the 748 nm laser light to 30 mW.
(§2) The cell lines employed in halogen lamp irradiation were the MCF7 (human breast carcinoma), SKMEL 188 (human melanoma) and S91/I3 (mouse melanoma) cells. They were used both for cytotoxicity and photocytotoxicity experiments. MCF7 cells were grown supplemented with 10% fetal calf (FBS) serum, 25 units/ml of penicillin, and 25 μg/ml of streptomycin. Human melanoma cells SKMEL-188 were grown in F10 medium supplemented with 10% fetal calf serum (FCS), 100 units/ml of penicillin, and 100 μg/ml of streptomycin. I3 subline of Cloudman S91 melanoma cells were cultured in RPMI 1640 medium supplemented with 100 units/ml of penicillin, 100 μg/ml streptomycin and 5% fetal calf serum (FCS) (Gibco BRL). All cell lines were cultivated as monolayer in Petri dishes of 60 mm diameter and incubated at 37° C. in a humid atmosphere containing 5% CO2.
(§3) Cytotoxicity. Cell metabolic efficiency and viability were determined by the uptake and reduction of 3-(4,5-dimethylthiazol-2-yl)-2,5-diphenyl tetrazolium bromide (MTT) to an insoluble formazan dye by cellular microsomal enzymes. The cell lines were grown in RPMI medium with 10% fetal calf serum, penicillin and streptomycin. Cells were maintained in 5% CO2, 95% air and 100% humidity. For determining cytotoxicity, these cells were plated in 96-well plates at a density of 1×10^4 cells well in complete media. After 24 h, the cells were incubated with photosensitizers at different concentrations (0.25 up to 50 μM) for 18 hours at 37° C. The cells were then washed twice with PBS and incubated in growth medium at 37° C. for 24 h. Next, the medium was replaced by 100 μl of fresh medium and 20 μl of MTT, and the cells were incubated with MTT for 3 h, with a final concentration of 0.5 mg/ml. Then the culture medium was replaced with DMSO-methanol solution (1:1) to dissolve the blue formazan crystals. The 96-well culture plate was shaken for 0.5 min at room temperature and immediately read for optical density at 560 nm using an ELISA reader (GENios Plus; Tecan Trading AG, Switzerland). The cell survival was expressed by the absorbance changes of the formazan salt, and survival rate was given as the percent ratio of viable treated cells vs. the number of viable untreated cells. Number of cells was determined from linear regression of a calibration curve.
(§4) Cell photosensitization. SKMEL 188, S91 and MCF7 cells were prepared as described above. […] The cells were incubated for 12 h at 37° C. and then irradiated at a 0.53 mW cm^2 fluence rate and in doses ranging from 0.1 to 0.64 J cm^2. We recall that photosensitizer uses only ca. ⅕ of the available fluence rate of the filtered halogen lamp. The MTT test was performed 24 h after irradiation. The values were obtained from three independent experiments and expressed as percent of cell survival with reference to control cells, which were manipulated in the same manner but without incubation with photosensitizer and without illumination. […]

For data set [1], the system named is MCF7 (human breast carcinoma). The description is as above. In kind it is cell-based. The following applies: [Luzitin-Cl-c] = 20 μM, filtered halogen lamp. On the procedure:
as §1, §2, §3, §4

The nature of data set [2]: Fluorescence quantum yield. The data set is classed as physicochemical. The following applies: in aqueous solution. On the procedure:
The absorptions of both reference and sample solutions were matched at ca 0.2 at the excitation wavelength of 515.5 nm, and the solutions were diluted by a factor 10 before collecting the fluorescence. The fluorescence quantum yield was obtained from the ratio of the fluorescence bands of the sample vs the reference, multiplied by the fluorescence quantum yield of the reference, 0.012 according to [12], after correction for the difference of refractive indexes of ethanol and toluene.
(§5) This is indicative of little aggregation between the molecules, which exist mostly as monomers at these concentrations in the solvents studied. Table 1 presents typical red and infrared molar absorption coefficients (εmax) and wavelength maxima. The same table also presents representative fluorescence quantum yields (ΦF) of Luzitins. The fluorescence quantum yields decrease of these molecules decrease in the presence of chlorine substituents, a fingerprint of the heavy atom effect expected for such molecules.

Data set [3] relates to SKMEL 188 (human melanoma). In words: Cell photosensitization, filtered halogen lamp, MTT. In kind it is cell-based. As to conditions: [Luzitin-Cl-c] = 20 μM. On the procedure: as §1
as §2, with “All cell lines were cultivated as monolayer in Petri dishes of 60 mm diameter and incubated at 37° C. in a humid atmosphere containing 5% CO2.” left out
Cytotoxicity. Cell metabolic efficiency and viability were determined by the uptake and reduction of 3-(4,5-dimethylthiazol-2-yl)-2,5-diphenyl tetrazolium bromide (MTT) to an insoluble formazan dye by cellular microsomal enzymes. […] The 96-well culture plate was shaken for 0.5 min at room temperature and immediately read for optical density at 560 nm using an ELISA reader (GENios Plus; Tecan Trading AG, Switzerland). The cell survival was expressed by the absorbance changes of the formazan salt, and survival rate was given as the percent ratio of viable treated cells vs. the number of viable untreated cells. Number of cells was determined from linear regression of a calibration curve.
Cell photosensitization. […] The values were obtained from three independent experiments and expressed as percent of cell survival with reference to control cells, which were manipulated in the same manner but without incubation with photosensitizer and without illumination.

The nature of data set [4]: Absorption spectra (λmax, molar absorption coefficient). The data set is classed as physicochemical. As to conditions: in aqueous solution. The procedure: Absorption spectra were recorded on a Shimadzu UV-2100 spectrophotometer or with a Carry 50 Biospectrophotometer (Varian, Mulgrave, USA). Fluorescence spectra were measured with a Spex Fluorolog 3 spectrophotometer, with correction for the wavelength dependence system (RCA C31034 photomultiplier), or with a PerkinElmer LS 50 spectrofluorimeter. Transient absorption spectra were measured with an Applied Photophysics LKS 60 nanosecond laser flash photolysis kinetic spectrometer, using the third harmonic of a Spectra-Physics Quanta Ray GCR 130-01 Nd/YAG laser for excitation, a Hamamatsu 1P28 photomultiplier and a Hewlett-Packard Infinium oscilloscope (1 GS/s). Flash photolysis measurements were made in the presence of air and in argon saturated solutions. Photoacoustic calorimetry employed the same Nd/YAG laser, a home-made front-face photoacoustic cell with a 2.25 MHz Panametrics transducer (model 5676) and a Tektronix DSA 601 transient recorder. Room-temperature singlet-oxygen phosphorescence was measured at 1270 nm with a Hamamatsu R5509-42 photomultiplier, cooled to 193 K in a liquid nitrogen chamber (Products for Research model PC176TSCE005), following laser excitation of aerated solutions at 355 nm, using an adapted Applied Photophysics spectrometer. Singlet oxygen emission at 1270 nm was also monitored with a liquid nitrogen-cooled germanium detector (North Coast) coupled to a Tectronix Digitizing scope (TDS 520B), following sample excitation with 5 ns laser pulses of the third harmonic (355 nm) generated by a Q-switched Nd:YAG laser (Continuum Surelite II).
as §5

A short description of data set [5]: Singlet oxygen quantum yield and lifetime (1270 nm phosphorescence). The data set is classed as physicochemical. As to conditions: in aqueous solution.

We go through one compound from patent US9670217B2, “Process for preparing chlorins and their pharmaceutical uses” (UNIVERSIDADE DE COIMBRA, priority 2008, dated 2017).

Each structure is given as a SMILES string.

Take `O=S(=O)(O)c1ccc(Cl)c(-c2c3nc(c(-c4cc(S(=O)(=O)O)ccc4Cl)c4ccc([nH]4)c(-c4cc(S(=O)(=O)O)ccc4Cl)c4nc(c(-c5cc(S(=O)(=O)O)ccc5Cl)c5ccc2[nH]5)CC4)C=C3)c1` [Luzitin-Cl-c, 5,10,15,20-tetrakis(2-chloro-5-sulfonylphenyl)chlorin]: the “LD50 (light dose to kill 50% of the cells)” value in the data set with S91 (mouse melanoma) turned out to be 0.13 J/cm^2; in data set [1] it was 0.3 J/cm^2; in data set [3] it was 0.26 J/cm^2. In addition, the “LD90 (light dose to kill 90% of the cells)” value with S91 (mouse melanoma) was 0.26 J/cm^2; in data set [1], 0.7 J/cm^2; in data set [3], 0.46 J/cm^2. Also, the “ΦF (fluorescence quantum yield)” value in data set [2] was 0.039. Also, the εmax in data set [4] was 7,000 M^−1 cm^−1. In addition, the λmax in data set [4] was found to be 650 nm. Besides, the “ΦΔ (singlet oxygen quantum yield)” value in data set [5] worked out at 0.69.
